Measured values as given in patent US20200288710A1, “SUBSTITUTED SULPHONAMIDES FOR CONTROLLING ANIMAL PESTS” (BAYER CROPSCIENCE AKTIENGESELLSCHAFT, priority 2016, published 2020).

What was measured:
Assay type in all cases: in vivo
Myzus persicae [1] = experiment: Myzus persicae spray test (Chinese cabbage leaf discs); settings: foliar, 120 h, 500 g/ha, after 5-6 days, read-out: efficacy
In short: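 Formulated compound in acetone/dimethylformamide, diluted in water with 1000 ppm emulsifier, was sprayed onto Brassica pekinensis leaf discs carrying mixed-stage Myzus persicae. Percent mortality was read 5-6 days later (0% = no aphids killed, 100% = all killed).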

Phaedon cochleariae = Phaedon cochleariae spray test; settings: foliar, 168 h, Chinese cabbage leaf discs, larvae, after 7 days, read-out: efficacy
Method: Phaedon cochleariae—Spray Test
To produce a suitable preparation of active compound, 1 part by weight of active compound is dissolved using the specified parts by weight of solvent and made up with water containing an emulsifier concentration of 1000 ppm until the desired concentration is attained. To produce further test concentrations, the formulation is diluted with emulsifier-containing water.
After 7 days, the efficacy in % is determined. 100% means that all the beetle larvae have been killed; 0% means that no beetle larvae have been killed.

Myzus persicae [2] = experiment: Myzus persicae oral test; settings: 120 h, 20 ppm, oral uptake, after 5 days, read-out: efficacy
In short: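 Aphids of mixed ages imbibe, through parafilm, compound solution (acetone stock, water-diluted) combined with sugar-supplemented IPL41 medium to 200 μl. Efficacy read at day 5 as percent killed, 0% meaning no deaths.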

Meloidogyne incognita = Meloidogyne incognita test; settings: 336 h, lettuce, after 14 days, read-out: nematicidal efficacy (formation of galls)
In short: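 Gall formation on lettuce roots scored after 14 days: 0% means gall count equals untreated control, 100% means none. Sand vessels held the compound (acetone concentrate diluted in water), southern root-knot nematode egg/larvae suspension and lettuce seeds.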

Structure (SMILES) | pest or weed control at 500 g/ha (Myzus persicae [1]) [%] | pest or weed control at 500 g/ha (Phaedon cochleariae) [%] | pest or weed control at 20 ppm (Myzus persicae [2]) [%] | pest or weed control at 20 ppm (Meloidogyne incognita) [%]
Cn1cc(C(=O)NS(=O)(=O)c2ccccc2Cl)nc1-c1nccc2ccccc12 [Example 464] | 100 | 100 | 90 | –
CCCc1cccc(C(F)(F)F)c1S(=O)(=O)NC(=O)c1cn(C)c(-c2c(F)cccc2F)n1 [Example 370] | 90 | 100 | 100 | –
Cc1ccccc1S(=O)(=O)NC(=O)c1cn(C)c(-c2ncccc2Cl)n1 [Example 540] | 100 | 100 | 100 | –
COc1ccc(Cl)c(S(=O)(=O)NC(=O)c2nc(-c3ccccc3Cl)n(C)c2Cl)c1 [Example 577] | – | 100 | – | 100
Cc1cc(F)c(F)cc1S(=O)(=O)NC(=O)c1cn(C)c(-c2ccccc2Cl)n1 [Example 290] | 100 | 100 | 100 | –
CCOc1ccc(Cl)c(S(=O)(=O)NC(=O)c2cn(C)c(-c3c(F)cccc3F)n2)c1 [Example 387] | 100 | 100 | 100 | –
Cc1c(-c2c(F)cccc2F)nc(C(=O)NS(=O)(=O)c2ccccc2Br)n1C [Example 309] | – | 100 | – | 100
COc1ccc(Br)c(S(=O)(=O)NC(=O)c2cn(C)c(-c3c(F)cccc3F)n2)c1 [Example 143] | 90 | 100 | 90 | –
Cc1ccc(F)cc1S(=O)(=O)NC(=O)c1cc(C)n(-c2ncccc2Br)n1 [Example 303] | 100 | 83 | 100 | –
CCc1ccc(Cl)cc1S(=O)(=O)NC(=O)c1cn(C)c(-c2cccc(Cl)c2Cl)n1 [Example 461] | 100 | 100 | 100 | –
CCc1ccc(CC)c(S(=O)(=O)NC(=O)c2cn(C)c(-c3c(F)cccc3F)n2)c1 [Example 340] | – | 100 | – | 90
CCc1ccccc1S(=O)(=O)NC(=O)c1cn(C)c(-c2nccc3ccccc23)n1 [Example 469] | 90 | 100 | 100 | –
Cc1ccccc1S(=O)(=O)NC(=O)c1nc(-c2c(F)cccc2F)n(C)c1C [Example 196] | – | 100 | 100 | –
Cn1cc(C(=O)NS(=O)(=O)c2ccccc2Cl)nc1-c1cccc2ccccc12 [Example 479] | – | 100 | – | 90
Cc1c(-c2c(F)cccc2F)nc(C(=O)NS(=O)(=O)c2ccccc2Cl)n1C [Example 308] | – | 100 | – | 90
COc1ccc(OC)c(S(=O)(=O)NC(=O)c2nc(-c3c(F)cccc3F)n(C)c2C)c1 [Example 413] | 90 | 83 | – | –
COc1ccc(Cl)c(S(=O)(=O)NC(=O)c2nc(-c3c(F)cccc3F)c(C)n2C)c1 [Example 307] | – | 100 | – | 100
O=C(NS(=O)(=O)c1ccc(Cl)cc1)c1nc(-c2ccccc2Cl)n(-c2ccccc2)c1Cl [Example 105] | – | 100 | – | –
Cn1cc(C(=O)NS(=O)(=O)c2c(Cl)cccc2Br)nc1-c1c(F)cccc1F [Example 430] | 100 | 100 | 100 | –
COc1cc(S(=O)(=O)NC(=O)c2cc(C)n(-c3ncccc3Br)n2)c(C)cc1Br [Example 300] | 90 | 100 | 100 | –
Cn1cc(C(=O)NS(=O)(=O)c2c(Cl)cccc2C(F)(F)F)nc1-c1cccc(Cl)c1Cl [Example 467] | 100 | 100 | 100 | –
COc1cc(S(=O)(=O)NC(=O)c2cn(C)c(-c3ncccc3Cl)n2)c(C)cc1Br [Example 611] | 90 | 100 | 100 | –
COc1ccc(C)c(S(=O)(=O)NC(=O)c2cn(C)c(-c3cccc(Cl)c3Cl)n2)c1 [Example 460] | 100 | 83 | – | –

Structure (SMILES) | pest or weed control at 500 g/ha (Myzus persicae [1]) [%] | pest or weed control at 500 g/ha (Phaedon cochleariae) [%] | pest or weed control at 20 ppm (Myzus persicae [2]) [%] | pest or weed control at 20 ppm (Meloidogyne incognita) [%]
Cc1ccccc1S(=O)(=O)NC(=O)c1cn(C)c(-c2nccc3ccccc23)n1 [Example 465] | 100 | 100 | 100 | –
Cn1cc(C(=O)NS(=O)(=O)c2ccc(Cl)c(Cl)c2)nc1-c1ccccc1Cl [Example 165] | 90 | 100 | 90 | –
Cc1cccc(Cl)c1S(=O)(=O)NC(=O)c1cc(C)n(-c2ncccc2Br)n1 [Example 304] | 100 | 100 | 100 | –
Cn1cc(C(=O)NS(=O)(=O)c2ccccc2Cl)nc1-c1cc(F)ccc1F [Example 515] | 90 | – | 100 | 90
COc1ccccc1S(=O)(=O)NC(=O)c1cn(C)c(-c2cccc(F)c2F)n1 [Example 528] | 100 | – | 100 | 90
COc1cc(S(=O)(=O)NC(=O)c2cn(C)c(-c3ncccc3F)n2)c(C)cc1Br [Example 610] | 100 | 100 | 100 | –
Cn1cc(C(=O)NS(=O)(=O)c2c(Cl)cccc2Br)nc1-c1cccc(Cl)c1Cl [Example 466] | 90 | 100 | 100 | –
COc1cc(C(=O)NS(=O)(=O)c2ccccc2Cl)nn1-c1ccccc1Cl [Example 275] | 90 | – | 100 | 100
CCc1ccccc1S(=O)(=O)NC(=O)c1cn(C)c(-c2cccc(Cl)c2Cl)n1 [Example 553] | 100 | – | 100 | 90
COc1ccc(Cl)c(S(=O)(=O)NC(=O)c2cn(C)c(-c3ccccc3C)n2)c1 [Example 98] | 90 | – | 100 | 90
Cc1cc(C(=O)NS(=O)(=O)c2ccccc2Cl)nn1-c1ccccc1Cl [Example 271] | 100 | – | 100 | 100
CCc1ccc(C)c(S(=O)(=O)NC(=O)c2cn(C)c(-c3c(F)cccc3F)n2)c1 [Example 395] | 100 | – | 90 | 90
CCn1cc(C(=O)NS(=O)(=O)c2c(Cl)cccc2Cl)nc1-c1ccccc1Cl [Example 69] | 90 | – | 100 | 90
Cn1cc(C(=O)NS(=O)(=O)c2ccccc2Cl)nc1-c1ccccc1Cl [Example 225] | 100 | – | 100 | 80
COc1ccc(F)cc1S(=O)(=O)NC(=O)c1cn(C)c(-c2ncccc2F)n1 [Example 596] | 100 | – | 100 | 90
COc1ccc(Cl)cc1S(=O)(=O)NC(=O)c1cn(C)c(-c2c(F)cccc2F)n1 [Example 393] | 100 | – | 100 | 90
Cn1cc(C(=O)NS(=O)(=O)c2c(Cl)cccc2C(F)(F)F)nc1-c1ncccc1Cl [Example 600] | 100 | – | 100 | 100
Cn1cc(C(=O)NS(=O)(=O)c2cccc(Cl)c2)nc1-c1ccccc1Cl [Example 33] | 90 | – | 100 | 100
CC(C)S(=O)(=O)NC(=O)c1nc(-c2ccccc2Cl)n(C)c1Cl [Example 206] | 100 | – | 90 | 100
Cn1cc(C(=O)NS(=O)(=O)c2c(Cl)cccc2Br)nc1-c1ncccc1F [Example 595] | 90 | – | 100 | 90
Cn1cc(C(=O)NS(=O)(=O)c2sc(Cl)cc2Br)nc1-c1ccccc1Cl [Example 426] | 100 | – | 100 | 90
CCc1ccccc1-c1nc(C(=O)NS(=O)(=O)c2ccccc2C)cn1C [Example 497] | 90 | – | 100 | 90
Cc1noc(C)c1S(=O)(=O)NC(=O)c1cn(C)c(-c2c(F)cccc2F)n1 [Example 358] | 100 | – | 100 | 90
